Assay results taken from ChEMBL document CHEMBL4414588, “Cinerols, Nitrogenous Meroterpenoids from the Marine Sponge Dysidea cinerea” (J Nat Prod, 2019).
Calls of active or inactive are those of the source. No cut-off for these calls is given here.

Key:
[1] = biological target: Tyrosine-protein kinase JAK2 (Homo sapiens) (UniProt O60674); assay: Inhibition of JAK2 (unknown origin)
[2] = biological target: Acetyl-CoA carboxylase 1 (Homo sapiens) (UniProt Q13085); assay: Inhibition of ACC1 (unknown origin)
[3] = biological target: T1, Tyrosine-protein phosphatase non-receptor type 11 (Homo sapiens) (UniProt Q06124); assay: Inhibition of SHP2 (unknown origin)
T1 sequence (whole entry): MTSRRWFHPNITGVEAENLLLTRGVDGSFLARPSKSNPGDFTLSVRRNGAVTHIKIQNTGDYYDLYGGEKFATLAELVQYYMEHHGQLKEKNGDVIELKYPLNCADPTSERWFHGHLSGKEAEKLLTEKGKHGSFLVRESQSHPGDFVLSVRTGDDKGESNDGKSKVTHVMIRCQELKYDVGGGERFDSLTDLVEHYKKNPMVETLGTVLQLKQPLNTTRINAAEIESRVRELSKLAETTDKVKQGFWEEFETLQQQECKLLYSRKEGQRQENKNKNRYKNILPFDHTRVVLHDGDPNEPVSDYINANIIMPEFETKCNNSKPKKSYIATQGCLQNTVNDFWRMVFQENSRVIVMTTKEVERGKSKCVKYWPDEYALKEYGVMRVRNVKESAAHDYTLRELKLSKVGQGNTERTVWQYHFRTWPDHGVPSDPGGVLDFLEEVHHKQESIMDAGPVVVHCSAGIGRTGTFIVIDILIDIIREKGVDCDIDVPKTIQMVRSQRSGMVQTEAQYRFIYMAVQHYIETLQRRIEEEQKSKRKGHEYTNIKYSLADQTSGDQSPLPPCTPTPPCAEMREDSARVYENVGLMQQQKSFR

A-375 = assay: Cytotoxicity against human A375 cells assessed as reduction in cell viability at 32 uM incubated for 72 hrs by CCK8 assay; assay type: cell-based; conditions: a-375, 72 h
HEK293 = assay: Cytotoxicity against human HEK293 cells assessed as reduction in cell viability at 32 uM incubated for 72 hrs by CCK8 assay; assay type: cell-based; conditions: hek293, 72 h
ATP-citrate synthase = biological target: T2, ATP-citrate synthase (Homo sapiens, UniProt P53396); assay: Inhibition of ACL (unknown origin)
T2 sequence (P53396 whole entry): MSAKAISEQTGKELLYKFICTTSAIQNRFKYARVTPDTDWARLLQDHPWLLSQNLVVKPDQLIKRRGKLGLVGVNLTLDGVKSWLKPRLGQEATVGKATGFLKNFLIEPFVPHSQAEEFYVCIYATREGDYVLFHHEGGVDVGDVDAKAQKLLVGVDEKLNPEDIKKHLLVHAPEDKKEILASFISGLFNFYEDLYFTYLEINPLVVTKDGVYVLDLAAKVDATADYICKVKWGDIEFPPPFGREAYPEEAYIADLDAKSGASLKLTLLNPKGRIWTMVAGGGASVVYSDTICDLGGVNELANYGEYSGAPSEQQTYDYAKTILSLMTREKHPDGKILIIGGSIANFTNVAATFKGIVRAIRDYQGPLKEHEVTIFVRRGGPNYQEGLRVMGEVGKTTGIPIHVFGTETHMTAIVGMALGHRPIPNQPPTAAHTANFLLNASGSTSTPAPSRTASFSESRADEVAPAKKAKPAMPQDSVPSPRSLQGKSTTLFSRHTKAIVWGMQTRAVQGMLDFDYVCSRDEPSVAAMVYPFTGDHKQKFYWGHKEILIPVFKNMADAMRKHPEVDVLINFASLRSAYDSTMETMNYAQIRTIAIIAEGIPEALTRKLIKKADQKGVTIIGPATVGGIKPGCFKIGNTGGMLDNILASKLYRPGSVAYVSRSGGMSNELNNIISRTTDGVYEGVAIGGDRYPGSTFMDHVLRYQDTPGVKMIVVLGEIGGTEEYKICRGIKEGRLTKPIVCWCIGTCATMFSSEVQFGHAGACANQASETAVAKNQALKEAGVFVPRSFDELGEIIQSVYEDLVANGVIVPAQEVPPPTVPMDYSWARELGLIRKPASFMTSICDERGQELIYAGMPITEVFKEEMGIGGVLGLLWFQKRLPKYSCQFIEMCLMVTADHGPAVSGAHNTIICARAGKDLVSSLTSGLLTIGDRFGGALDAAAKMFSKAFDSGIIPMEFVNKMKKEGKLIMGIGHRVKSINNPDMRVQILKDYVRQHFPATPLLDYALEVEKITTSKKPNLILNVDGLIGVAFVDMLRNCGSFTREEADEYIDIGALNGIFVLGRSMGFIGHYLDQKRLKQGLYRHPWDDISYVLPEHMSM

[4] = biological target: T3, Tyrosine-protein phosphatase non-receptor type 1 (Homo sapiens, UniProt P18031); assay: Inhibition of PTP1B (unknown origin) using pNPP as substrate incubated for 30 mins
T3 sequence (P18031 whole entry): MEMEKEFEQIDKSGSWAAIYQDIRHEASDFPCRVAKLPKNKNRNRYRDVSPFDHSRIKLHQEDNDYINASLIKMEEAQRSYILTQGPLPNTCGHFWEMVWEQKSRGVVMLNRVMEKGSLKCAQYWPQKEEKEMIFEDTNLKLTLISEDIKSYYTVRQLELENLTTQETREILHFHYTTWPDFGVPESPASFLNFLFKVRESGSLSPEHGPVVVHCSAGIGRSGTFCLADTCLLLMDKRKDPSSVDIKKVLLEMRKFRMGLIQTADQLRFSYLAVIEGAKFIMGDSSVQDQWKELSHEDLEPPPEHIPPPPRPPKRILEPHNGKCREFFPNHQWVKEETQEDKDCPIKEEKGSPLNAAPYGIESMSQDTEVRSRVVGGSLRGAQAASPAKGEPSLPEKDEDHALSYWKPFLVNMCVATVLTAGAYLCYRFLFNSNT

[5] = biological target: Tyrosine-protein phosphatase non-receptor type 6 (Homo sapiens, UniProt P29350); assay: Inhibition of SHP1 (unknown origin)
Chain of Tyrosine-protein phosphatase non-receptor type 6 (P29350 whole entry): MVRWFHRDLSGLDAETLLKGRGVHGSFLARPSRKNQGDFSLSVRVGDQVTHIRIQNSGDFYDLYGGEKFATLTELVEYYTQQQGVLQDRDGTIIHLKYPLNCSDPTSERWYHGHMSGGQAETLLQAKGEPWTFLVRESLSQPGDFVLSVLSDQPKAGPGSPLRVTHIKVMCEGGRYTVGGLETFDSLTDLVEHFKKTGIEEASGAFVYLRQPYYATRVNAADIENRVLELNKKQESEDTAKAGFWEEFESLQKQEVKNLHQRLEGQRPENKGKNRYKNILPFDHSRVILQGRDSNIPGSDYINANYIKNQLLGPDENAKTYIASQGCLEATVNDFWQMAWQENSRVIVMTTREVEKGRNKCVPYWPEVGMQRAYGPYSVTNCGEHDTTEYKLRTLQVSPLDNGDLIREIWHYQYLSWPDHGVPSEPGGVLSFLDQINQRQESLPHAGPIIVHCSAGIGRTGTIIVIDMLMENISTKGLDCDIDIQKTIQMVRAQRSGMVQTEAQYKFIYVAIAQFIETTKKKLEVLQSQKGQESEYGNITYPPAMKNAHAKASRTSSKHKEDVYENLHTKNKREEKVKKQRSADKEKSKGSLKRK

Chain of Tyrosine-protein kinase JAK2 (Homo sapiens) (O60674 whole entry): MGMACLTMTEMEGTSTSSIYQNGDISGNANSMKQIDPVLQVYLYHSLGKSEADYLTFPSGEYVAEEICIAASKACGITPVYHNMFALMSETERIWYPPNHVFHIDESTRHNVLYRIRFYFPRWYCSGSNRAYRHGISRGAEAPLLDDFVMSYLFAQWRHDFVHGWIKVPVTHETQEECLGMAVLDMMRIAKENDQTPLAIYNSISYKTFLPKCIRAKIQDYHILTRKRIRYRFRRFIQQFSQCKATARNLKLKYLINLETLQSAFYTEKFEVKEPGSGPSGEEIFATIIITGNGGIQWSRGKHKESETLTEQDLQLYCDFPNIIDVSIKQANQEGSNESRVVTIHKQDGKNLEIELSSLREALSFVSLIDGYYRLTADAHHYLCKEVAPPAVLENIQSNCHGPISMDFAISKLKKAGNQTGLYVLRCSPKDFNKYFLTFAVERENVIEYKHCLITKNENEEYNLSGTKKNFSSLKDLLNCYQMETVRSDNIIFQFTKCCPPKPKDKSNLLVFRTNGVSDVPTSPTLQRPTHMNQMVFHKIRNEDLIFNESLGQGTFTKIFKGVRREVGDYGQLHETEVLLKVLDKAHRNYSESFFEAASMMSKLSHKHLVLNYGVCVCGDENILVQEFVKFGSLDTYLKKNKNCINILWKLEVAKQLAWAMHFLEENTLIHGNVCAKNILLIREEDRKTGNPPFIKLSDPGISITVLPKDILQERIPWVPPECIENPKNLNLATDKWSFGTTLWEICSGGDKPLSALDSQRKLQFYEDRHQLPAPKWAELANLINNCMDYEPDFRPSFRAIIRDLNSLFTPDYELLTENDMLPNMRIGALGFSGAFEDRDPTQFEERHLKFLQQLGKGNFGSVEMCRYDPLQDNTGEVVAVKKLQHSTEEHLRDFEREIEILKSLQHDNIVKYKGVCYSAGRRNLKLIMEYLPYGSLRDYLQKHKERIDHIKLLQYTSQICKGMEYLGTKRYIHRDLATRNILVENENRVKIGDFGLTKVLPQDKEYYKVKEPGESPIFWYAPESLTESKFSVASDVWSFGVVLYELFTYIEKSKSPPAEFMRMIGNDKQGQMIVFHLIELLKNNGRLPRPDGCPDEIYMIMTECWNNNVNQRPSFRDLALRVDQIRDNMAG

Structure (SMILES) | inhibition [1] | inhibition [2] | inhibition [3] | Activity (A-375) | Activity (HEK293) | IC50 (ATP-citrate synthase) [µM] | IC50 [4] [µM] | IC50 [5] [µM]
CC1=CCC[C@H]2[C@](C)(Cc3cc(NC(=O)CC(C)C)ccc3O)[C@@H](C)CC[C@]12C | inactive | inactive | inactive | Non-Toxic | – | – | – | –
CC(=O)Nc1ccc(O)c(C[C@]2(C)[C@@H](C)CC[C@]3(C)C(C)=CCC[C@@H]23)c1 | inactive | inactive | inactive | Non-Toxic | Non-Toxic | – | – | –
CC1=CCC[C@H]2[C@](C)(Cc3cc(O)cc4c3oc(=O)n4C)[C@@H](C)CC[C@]12C | inactive | inactive | inactive | Non-Toxic | Non-Toxic | – | – | –
C=C1CCC[C@H]2[C@](C)(Cc3cc(O)cc4nc5n(c34)CCC5)[C@@H](C)CC[C@]12C | inactive | inactive | inactive | Non-Toxic | – | 2.8 to 27 | 2.8 to 27 | 2.8 to 27
CC1=CCC[C@H]2[C@](C)(Cc3cc(N4CCCC4=O)ccc3O)[C@@H](C)CC[C@]12C | inactive | inactive | inactive | Non-Toxic | Non-Toxic | – | – | –
CC1=CCC[C@H]2[C@](C)(Cc3cc(O)cc4ncoc34)[C@@H](C)CC[C@]12C | inactive | inactive | inactive | Non-Toxic | Non-Toxic | 2.8 to 27 | 2.8 to 27 | 2.8 to 27
CC1=CCC[C@H]2[C@](C)(Cc3cc(O)cc4[nH]c(=O)oc34)[C@@H](C)CC[C@]12C | inactive | inactive | inactive | Non-Toxic | Non-Toxic | 2.8 to 27 | 2.8 to 27 | 2.8 to 27
CC1=CCC[C@H]2[C@](C)(Cc3cc(-n4cccc4C=O)ccc3O)[C@@H](C)CC[C@]12C | inactive | inactive | inactive | Non-Toxic | Non-Toxic | – | – | –
C=C1CCC[C@H]2[C@](C)(Cc3cc(O)cc4nc(C)oc34)[C@@H](C)CC[C@]12C | inactive | inactive | inactive | Non-Toxic | Non-Toxic | – | – | –
CC1=CCC[C@H]2[C@](C)(Cc3cc(O)cc4nc(C)oc34)[C@@H](C)CC[C@]12C | inactive | inactive | inactive | Non-Toxic | Non-Toxic | – | – | –
CC1=CCC[C@H]2[C@](C)(Cc3cc(O)cc4nc5n(c34)CCC5)[C@@H](C)CC[C@]12C | inactive | inactive | inactive | Non-Toxic | – | 2.8 to 27 | 2.8 to 27 | 2.8 to 27
